Laboratory results as given in the supplement of paper PMC8671470.

Key:
MV4-11 = assay: cell viability (% survival relative to DMSO control); higher = less cytotoxic; conditions: 72 h
Procedure: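 8x8 drug-combination matrices (0–5000 nM; rosiglitazone and lestaurtinib 0–1000 nM) were run in MV4-11 cells for 72 h with CellTiter-Glo read-out. Survival is normalised to DMSO and 10 µM bortezomib and clipped at 100%.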

BV-173 = assay: as above; conditions: 72 h
Procedure: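 8x8 drug-combination matrices (0–5000 nM; rosiglitazone and lestaurtinib 0–1000 nM) were run in BV-173 cells for 72 h with CellTiter-Glo read-out. Survival is normalised to DMSO and 10 µM bortezomib and clipped at 100%.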

[1] = drug1 concentration 5 nM, drug2 concentration 5 nM
[2] = drug1 concentration 5 nM, drug2 concentration 10 nM
[3] = drug1 concentration 5 nM, drug2 concentration 50 nM
[4] = drug1 concentration 5 nM, drug2 concentration 100 nM
[5] = drug1 concentration 5 nM, drug2 concentration 500 nM
[6] = drug1 concentration 5 nM, drug2 concentration 1000 nM
[7] = drug1 concentration 5 nM, drug2 concentration 5000 nM
[8] = drug1 concentration 10 nM, drug2 concentration 5 nM
[9] = drug1 concentration 10 nM, drug2 concentration 10 nM
[10] = drug1 concentration 10 nM, drug2 concentration 50 nM
[11] = drug1 concentration 10 nM, drug2 concentration 100 nM
[12] = drug1 concentration 10 nM, drug2 concentration 500 nM
[13] = drug1 concentration 10 nM, drug2 concentration 1000 nM
[14] = drug1 concentration 10 nM, drug2 concentration 5000 nM
[15] = drug1 concentration 50 nM, drug2 concentration 5 nM
[16] = drug1 concentration 50 nM, drug2 concentration 10 nM
[17] = drug1 concentration 50 nM, drug2 concentration 50 nM
[18] = drug1 concentration 50 nM, drug2 concentration 100 nM
[19] = drug1 concentration 50 nM, drug2 concentration 500 nM
[20] = drug1 concentration 50 nM, drug2 concentration 1000 nM
[21] = drug1 concentration 50 nM, drug2 concentration 5000 nM
[22] = drug1 concentration 100 nM, drug2 concentration 5 nM
[23] = drug1 concentration 100 nM, drug2 concentration 10 nM
[24] = drug1 concentration 100 nM, drug2 concentration 50 nM

Structure (SMILES): CN(C)C(=O)n1nnnc1Cc1ccc(-c2ccccc2)cc1 + CCOC(=O)N1c2ccc(C(F)(F)F)cc2[C@@H](N(Cc2cc(C(F)(F)F)cc(C(F)(F)F)c2)C(=O)OC)C[C@H]1CC [Torcetrapib]
- cell viability (MV4-11; [1]): > 100%
- cell viability (MV4-11; [2]): 94.9%
- cell viability (MV4-11; [3]): > 100%
- cell viability (MV4-11; [4]): > 100%
- cell viability (MV4-11; [5]): > 100%
- cell viability (MV4-11; [6]): 98%
- cell viability (MV4-11; [7]): 98.2%
- cell viability (MV4-11; [8]): 95%
- cell viability (MV4-11; [9]): 96%
- cell viability (MV4-11; [10]): > 100%
- cell viability (MV4-11; [11]): > 100%
- cell viability (MV4-11; [12]): > 100%
- cell viability (MV4-11; [13]): 99.8%
- cell viability (MV4-11; [14]): > 100%
- cell viability (MV4-11; [15]): > 100%
- cell viability (MV4-11; [16]): > 100%
- cell viability (MV4-11; [17]): > 100%
- cell viability (MV4-11; [18]): > 100%
- cell viability (MV4-11; [19]): > 100%
- cell viability (MV4-11; [20]): 85.5%
- cell viability (MV4-11; [21]): > 100%
- cell viability (MV4-11; [22]): 89.1%
- cell viability (MV4-11; [23]): 85%
- cell viability (MV4-11; [24]): 87.6%
- cell viability (MV4-11; drug1 concentration 100 nM, drug2 concentration 100 nM): > 100%
- cell viability (MV4-11; drug1 concentration 100 nM, drug2 concentration 500 nM): 98%
- cell viability (MV4-11; drug1 concentration 100 nM, drug2 concentration 1000 nM): 93%
- cell viability (MV4-11; drug1 concentration 100 nM, drug2 concentration 5000 nM): 98.2%
- cell viability (MV4-11; drug1 concentration 500 nM, drug2 concentration 5 nM): 76.8%
- cell viability (MV4-11; drug1 concentration 500 nM, drug2 concentration 10 nM): 74.3%
- cell viability (MV4-11; drug1 concentration 500 nM, drug2 concentration 50 nM): 88.5%
- cell viability (MV4-11; drug1 concentration 500 nM, drug2 concentration 100 nM): > 100%
- cell viability (MV4-11; drug1 concentration 500 nM, drug2 concentration 500 nM): > 100%
- cell viability (MV4-11; drug1 concentration 500 nM, drug2 concentration 1000 nM): 99.7%
- cell viability (MV4-11; drug1 concentration 500 nM, drug2 concentration 5000 nM): > 100%
- cell viability (MV4-11; drug1 concentration 1000 nM, drug2 concentration 5 nM): > 100%
- cell viability (MV4-11; drug1 concentration 1000 nM, drug2 concentration 10 nM): 79.8%
- cell viability (MV4-11; drug1 concentration 1000 nM, drug2 concentration 50 nM): 97.3%
- cell viability (MV4-11; drug1 concentration 1000 nM, drug2 concentration 100 nM): 77.1%
- cell viability (MV4-11; drug1 concentration 1000 nM, drug2 concentration 500 nM): > 100%
- cell viability (MV4-11; drug1 concentration 1000 nM, drug2 concentration 1000 nM): > 100%
- cell viability (MV4-11; drug1 concentration 1000 nM, drug2 concentration 5000 nM): 94.2%
- cell viability (MV4-11; drug1 concentration 5000 nM, drug2 concentration 5 nM): 0.81%
- cell viability (MV4-11; drug1 concentration 5000 nM, drug2 concentration 10 nM): 3.27%
- cell viability (MV4-11; drug1 concentration 5000 nM, drug2 concentration 50 nM): 4.29%
- cell viability (MV4-11; drug1 concentration 5000 nM, drug2 concentration 100 nM): 1.95%
- cell viability (MV4-11; drug1 concentration 5000 nM, drug2 concentration 500 nM): 1.23%
- cell viability (MV4-11; drug1 concentration 5000 nM, drug2 concentration 1000 nM): 2.41%
- cell viability (MV4-11; drug1 concentration 5000 nM, drug2 concentration 5000 nM): 2.53%
- cell viability (BV-173; [1]): > 100%
- cell viability (BV-173; [2]): 79.6%
- cell viability (BV-173; [3]): 70.5%
- cell viability (BV-173; [4]): 62.8%
- cell viability (BV-173; [5]): 73.5%
- cell viability (BV-173; [6]): 80.8%
- cell viability (BV-173; [7]): 61.4%
- cell viability (BV-173; [8]): > 100%
- cell viability (BV-173; [9]): 99.9%
- cell viability (BV-173; [10]): 94.4%
- cell viability (BV-173; [11]): 69%
- cell viability (BV-173; [12]): > 100%
- cell viability (BV-173; [13]): 68.8%
- cell viability (BV-173; [14]): 64.7%
- cell viability (BV-173; [15]): > 100%
- cell viability (BV-173; [16]): 97.9%
- cell viability (BV-173; [17]): 69.5%
- cell viability (BV-173; [18]): 80.1%
- cell viability (BV-173; [19]): > 100%
- cell viability (BV-173; [20]): 94.8%
- cell viability (BV-173; [21]): 62%
- cell viability (BV-173; [22]): 83.6%
- cell viability (BV-173; [23]): 77.9%
- cell viability (BV-173; [24]): 70.6%
